Assay results reported in PubChem BioAssay AID248 (DTP/NCI, 2004).
Values joined by “and” are separate entries in the source; they are usually repeats but may differ in a detail not shown here. Equal values may be shown once. Toxic doses and inconclusive results are not listed. Rule as the data show it: active = T/C of 150% or more; inactive = T/C below 125%.

System: L1210 leukemia ip in BDF1 mice, survival T/C
Assay: NCI In Vivo Anticancer Drug Screen. Data for tumor model L1210 Leukemia (intraperitoneal) in B6D2F1 (BDF1) mice
Conditions: endpoint: mean survival time, higher = longer survival
In short: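 Value reflects the ratio of survival in compound-treated mice to survival in vehicle-treated controls, with both groups carrying the same transplanted tumor.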

[1] = dose: 25.0 mg/kg/injection, schedule: Q04DX002 (ip), vehicle: saline
[2] = dose: 50.0 mg/kg/injection, schedule: Q04DX002 (ip), vehicle: saline
[3] = dose: 100.0 mg/kg/injection, schedule: Q04DX002 (ip), vehicle: saline
[4] = dose: 100.0 mg/kg/injection, schedule: Q04DX002 (ip), vehicle: Klucel (hydroxypropylcellulose) (HPC)
[5] = dose: 200.0 mg/kg/injection, schedule: Q04DX002 (ip), vehicle: Klucel (hydroxypropylcellulose) (HPC)
[6] = dose: 75.0 mg/kg/injection, schedule: Q01DX001 (ip), vehicle: saline
[7] = dose: 150.0 mg/kg/injection, schedule: Q01DX001 (ip), vehicle: saline
[8] = dose: 100.0 mg/kg/injection, schedule: Q04DX003 (ip), vehicle: Klucel (hydroxypropylcellulose) (HPC)
[9] = dose: 50.0 mg/kg/injection, schedule: Q01DX009 (ip), vehicle: Klucel (hydroxypropylcellulose) (HPC)
[10] = dose: 100.0 mg/kg/injection, schedule: Q01DX009 (ip), vehicle: Klucel (hydroxypropylcellulose) (HPC)
[11] = dose: 200.0 mg/kg/injection, schedule: Q01DX009 (ip), vehicle: Klucel (hydroxypropylcellulose) (HPC)
[12] = dose: 400.0 mg/kg/injection, schedule: Q01DX009 (ip), vehicle: Klucel (hydroxypropylcellulose) (HPC)
[13] = dose: 100.0 mg/kg/injection, schedule: Q01DX001 (ip), vehicle: saline
[14] = dose: 200.0 mg/kg/injection, schedule: Q01DX001 (ip), vehicle: saline
[15] = dose: 400.0 mg/kg/injection, schedule: Q01DX001 (ip), vehicle: saline
[16] = dose: 200.0 mg/kg/injection, schedule: Q04DX003 (ip), vehicle: Klucel (hydroxypropylcellulose) (HPC)
[17] = dose: 400.0 mg/kg/injection, schedule: Q04DX003 (ip), vehicle: Klucel (hydroxypropylcellulose) (HPC)
[18] = dose: 100.0 mg/kg/injection, schedule: Q01DX009 (ip), vehicle: saline with Tween-80
[19] = dose: 200.0 mg/kg/injection, schedule: Q01DX009 (ip), vehicle: saline with Tween-80
[20] = dose: 25.0 mg/kg/injection, schedule: Q01DX009 (ip), vehicle: saline with Tween-80
[21] = dose: 50.0 mg/kg/injection, schedule: Q01DX009 (ip), vehicle: saline with Tween-80
[22] = dose: 100.0 mg/kg/injection, schedule: Q04DX003 (ip), vehicle: saline
[23] = dose: 200.0 mg/kg/injection, schedule: Q04DX003 (ip), vehicle: saline
[24] = dose: 400.0 mg/kg/injection, schedule: Q04DX003 (ip), vehicle: saline

Measured: T/C

CN(CCCN)CCCN
inactive: [1] 115 % of control | [2] 96 % of control | [3] 100 % of control and 104 % of control

CC(=O)N(C)c1ccccc1
inactive: [3] 99 % of control

O=[N+]([O-])c1ccc([S][Pb]([c]2ccccc2)([c]2ccccc2)[c]2ccccc2)cc1
inactive: [4] 111 % of control | [5] 93 % of control

COc1ccc(C=NC(C)(C)CO)c(OC)c1
inactive: [6] 96 % of control | [7] 101 % of control

c1ccc(C2CO2)cc1 (stereo unspecified)
inactive: dose: 25.0 mg/kg/injection, schedule: Q04DX003 (ip), vehicle: Klucel (hydroxypropylcellulose) (HPC) 97 % of control | dose: 50.0 mg/kg/injection, schedule: Q01DX001 (ip), vehicle: carboxymethylcellulose (CMC) 95 % of control | dose: 50.0 mg/kg/injection, schedule: Q04DX003 (ip), vehicle: Klucel (hydroxypropylcellulose) (HPC) 90 % of control | dose: 100.0 mg/kg/injection, schedule: Q01DX001 (ip), vehicle: carboxymethylcellulose (CMC) 101 % of control | [8] 98 % of control | dose: 200.0 mg/kg/injection, schedule: Q01DX001 (ip), vehicle: carboxymethylcellulose (CMC) 97 % of control | dose: 400.0 mg/kg/injection, schedule: Q01DX001 (ip), vehicle: carboxymethylcellulose (CMC) 97 % of control

CSc1ccc(NC(=O)Nc2cc(Cl)c(Cl)cc2C)cc1
inactive: [9] 87 % of control | [10] 87 % of control | [11] 86 % of control and 92 % of control | [12] 86 % of control

CCCCCCCC(Cc1ccccc1)C(N)=O (stereo unspecified)
inactive: [13] 97 % of control | [14] 92 % of control | [15] 92 % of control

c1ccc2c(CCNC3=NCCO3)c[nH]c2c1
inactive: dose: 50.0 mg/kg/injection, schedule: Q04DX002 (ip), vehicle: saline with Tween-80 91 % of control | dose: 100.0 mg/kg/injection, schedule: Q04DX002 (ip), vehicle: saline with Tween-80 91 % of control | [8] 94 % of control | [16] 108 % of control | [17] 94 % of control

Cc1cc(N(CCCOS(C)(=O)=O)CCCOS(C)(=O)=O)ccc1C=Nc1ccc(-c2csc(COc3ccc(Cl)cc3Cl)n2)cc1
inactive: [18] 91 % of control | [19] 96 % of control | dose: 400.0 mg/kg/injection, schedule: Q01DX009 (ip), vehicle: saline with Tween-80 94 % of control

N=C(N)SCc1ccc(Cl)cc1Cl
inactive: [20] 100 % of control | [21] 96 % of control | [18] 98 % of control | [4] 96 % of control | [5] 89 % of control | dose: 400.0 mg/kg/injection, schedule: Q04DX002 (ip), vehicle: Klucel (hydroxypropylcellulose) (HPC) 96 % of control

C(=C1/CC2CCC1C2)/c1ccccc1 (stereo unspecified)
inactive: [13] 98 % of control | [22] 93 % of control | [14] 103 % of control | [23] 93 % of control | [15] 101 % of control | [24] 89 % of control

CCCCCCCCCCCCCC(CCCCCC)c1ccccc1 (stereo unspecified)
inactive: dose: 100.0 mg/kg/injection, schedule: Q01DX001 (ip), vehicle: saline + alcohol 119 % of control | dose: 200.0 mg/kg/injection, schedule: Q01DX001 (ip), vehicle: saline + alcohol 106 % of control | dose: 400.0 mg/kg/injection, schedule: Q01DX001 (ip), vehicle: saline + alcohol 95 % of control

CCOC(=O)NCCNC(=O)OCC
inactive: dose: 75.0 mg/kg/injection, schedule: Q01DX001 (ip), vehicle: Klucel (hydroxypropylcellulose) (HPC) 105 % of control | dose: 150.0 mg/kg/injection, schedule: Q01DX001 (ip), vehicle: Klucel (hydroxypropylcellulose) (HPC) 95 % of control | dose: 300.0 mg/kg/injection, schedule: Q01DX001 (ip), vehicle: Klucel (hydroxypropylcellulose) (HPC) 100 % of control

CC(=O)Nc1ccc([I+]c2ccc([N+](=O)[O-])cc2)cc1
inactive: dose: 6.25 mg/kg/injection, schedule: Q01DX009 (ip), vehicle: Klucel (hydroxypropylcellulose) (HPC) 90 % of control | dose: 12.5 mg/kg/injection, schedule: Q01DX009 (ip), vehicle: Klucel (hydroxypropylcellulose) (HPC) 98 % of control | dose: 25.0 mg/kg/injection, schedule: Q01DX009 (ip), vehicle: Klucel (hydroxypropylcellulose) (HPC) 104 % of control | [9] 106 % of control | [10] 101 % of control | [19] 109 % of control

O=C(O)C12CCC(CC1)CC2
inactive: dose: 75.0 mg/kg/injection, schedule: Q01DX009 (ip), vehicle: saline 100 % of control | [13] 93 % of control | dose: 150.0 mg/kg/injection, schedule: Q01DX009 (ip), vehicle: saline 103 % of control | [14] 88 % of control | dose: 300.0 mg/kg/injection, schedule: Q01DX009 (ip), vehicle: saline 100 % of control | [15] 90 % of control

O=C1CCC2(CCC(=O)c3ccccc32)C(=O)N1 (stereo unspecified)
inactive: [9] 104 % of control | [10] 104 % of control | [8] 93 % of control | [11] 104 % of control | [16] 93 % of control | [12] 108 % of control | [17] 100 % of control

O=C(/C=C/c1ccccc1)NC(=S)Nc1cccc2ccccc12
inactive: [20] 96 % of control and 90 % of control | [21] 94 % of control | dose: 100.0 mg/kg/injection, schedule: Q01DX001 (ip), vehicle: saline with Tween-80 93 % of control | dose: 100.0 mg/kg/injection, schedule: Q04DX002 (ip), vehicle: alcohol 87 % of control | dose: 100.0 mg/kg/injection, schedule: Q04DX003 (ip), vehicle: saline with Tween-80 86 % of control | dose: 200.0 mg/kg/injection, schedule: Q01DX001 (ip), vehicle: saline with Tween-80 97 % of control | dose: 200.0 mg/kg/injection, schedule: Q04DX002 (ip), vehicle: alcohol 97 % of control | dose: 200.0 mg/kg/injection, schedule: Q04DX003 (ip), vehicle: saline with Tween-80 100 % of control | dose: 400.0 mg/kg/injection, schedule: Q01DX001 (ip), vehicle: saline with Tween-80 93 % of control | dose: 400.0 mg/kg/injection, schedule: Q04DX002 (ip), vehicle: alcohol 93 % of control | dose: 400.0 mg/kg/injection, schedule: Q04DX003 (ip), vehicle: saline with Tween-80 105 % of control

CN(C)CCC(CCC(=O)O)(C(=O)O)c1ccccc1 (stereo unspecified)
inactive: [6] 98 % of control | [7] 96 % of control | dose: 300.0 mg/kg/injection, schedule: Q01DX001 (ip), vehicle: saline 90 % of control

CCCCSc1ccc2c(cc1=O)C(NC(C)=O)CCc1cc(OC)c(OC)c(OC)c1-2 (stereo unspecified)
inactive: [1] 98 % of control | [2] 98 % of control | [3] 120 % of control

CN(C)/N=N\c1nc[nH]c1C(=O)NN
inactive: dose: 50.0 mg/kg/injection, schedule: Q01DX001 (ip), vehicle: saline 107 % of control | [13] 101 % of control | [14] 107 % of control | [15] 110 % of control

Cc1ccccc1-n1c(O)c(N=Nc2ccc(Cl)cc2)c(=O)n(-c2ccccc2)c1=S
inactive: dose: 100.0 mg/kg/injection, schedule: Q01DX001 (ip), vehicle: Klucel (hydroxypropylcellulose) (HPC) 87 % of control | dose: 200.0 mg/kg/injection, schedule: Q01DX001 (ip), vehicle: Klucel (hydroxypropylcellulose) (HPC) 109 % of control

O=C(Nc1nccs1)Nc1ccc(Cl)cc1Cl
inactive: [21] 91 % of control | [18] 98 % of control | [19] 109 % of control

O=[N+]([O-])c1ccc(OCc2ccc(S(=O)(=O)F)c(Cl)c2)c(Cl)c1
inactive: dose: 100.0 mg/kg/injection, schedule: Q01DX009 (ip), vehicle: other 101 % of control | [22] 101 % of control | dose: 200.0 mg/kg/injection, schedule: Q01DX009 (ip), vehicle: other 108 % of control | [23] 104 % of control | dose: 400.0 mg/kg/injection, schedule: Q01DX009 (ip), vehicle: other 94 % of control | [24] 88 % of control

CCN(CC)CCNC(=O)c1ccc(N=Cc2cc(Cl)cc(Cl)c2O)cc1
inactive: [10] 100 % of control | [11] 96 % of control
